Columns and labels:
[1] = tested on: anti-β2-GPI antibodies; assay: ELISA of the anti-β2-GPI antibodies by use of a ligand-coated plate (results in words); format: binding; settings: result in words
Description: (§1) Binding to extracted lipids: A microtiter plate (Immulon 1B, Dynex Technologies Inc.) was coated with lipids extracted from LDLs (50 μg/mL, 50 μL/well) by ethanol evaporation. The wells were blocked with PBS containing 1% BSA for one hour and the wells were incubated with 30 μg/mL of β2-GPI for one hour. Then, β2-GPI binding was detected using Cof-22 and HRP-labeled anti-mouse IgG antibodies. Alternatively, an anti-β2-GPI autoantibody (Cof-22, WB-CAL-1, or EY2C9) was diluted with a 0.3% BSA-containing PBS, and the diluted antibody was added to the coated plate (1.0 μg/mL, 100 μL/well) and incubated with β2-GPI (15 μg/mL) for one hour. The binding of the antibody was detected by an HRP-labeled anti-mouse IgG /or an anti-human IgM. The color was developed with H2O2 and o-phenylenediamine, and OD was measured at 490 nm. Between these steps, extensive washing were done using PBS containing 0.05% Tween 20.
(§2) Synthesized oxLig-1 (50 μg/mL, 50 μL/well) was adsorbed by evaporation on a polystyrene plate (Immulon 1B; Dynex Technologies Inc.), and the plate was then blocked with 1% BSA. Serum samples (diluted 1:100 with PBS containing 0.3% BSA) were incubated in the wells with β2-GPI (15 μg/mL) or other proteins for one hour at room temperature. Antibody binding was detected with HRP-labeled anti-human IgG. Further steps were performed through a method as described in “anti-β2-GPI ELISA.”

[2] = tested on: APS-1; assay: ELISA on solid-phase lipid-coated plate: binding of antibodies of APS patient serum APS-1; set-up: species or system human; settings: Experiment 1; Absorbance, mean ± SD, n = 3; solid-phase lipid, β2-GPI 15 μg/mL; serum with β2-GPI removed
Description: To eliminate endogenous β2-GPI in some experiments, serum samples were passed through a heparin-Sepharose column. The effluent was dialyzed against PBS and was used for ELISAs.
as §2
(§3) CL (50 μg/mL, 50 μL/well) was adsorbed on a polystyrene plate (Immulon 1B), and further steps were performed through a method as described in “ELISA for antibodies against a protein-oxLig-1 complex.”

[3] = tested on: WB-CAL-1; assay: ELISA on solid-phase lipid (ligand)-coated plate: WB-CAL-1 binding in presence of β2-GPI; set-up: species or system mouse
Description: as §1, §2, §3

[4] = tested on: J774A.1 cells; assay: Liposome binding to macrophages (3H-labeled liposomes, 4° C.); format: cell-based, murine
Description: FIG. 10. Effect of phosphatidylserine (PS) or oxLig-1 content on the binding of liposomes to macrophages. A monolayer of J774.A1 cells was incubated for 2 hours at 4° C. with Celgrosser-P medium containing ^3H-labeled liposomes (50 nmol lipid/well). Open circle represents PS-liposomes; closed circle represents PS-Chol-liposomes; open square represents oxLig-1-liposomes; and closed square represents oxLig-1-Chol-liposomes. Data are indicated as the mean± SD of triplicate samples.
FIG. 11. β2-GPI and anti-β2-GPI monoclonal antibody-dependent binding of ligand-containing liposomes to macrophage. A monolayer of J774.A1 cells was incubated for 2 hours at 4° C. with Celgrosser-P medium containing ^3H-labeled liposomes (50 nmol lipid/well) and WB-CAL-1, in the presence or absence of β2-GPI (200 μg/ml). • A: Binding of PS-liposomes (PS: 50 mol %,) to J774.A1. cells in the presence (closed square) or absence (open square) of β2-GPI (200 μg/ml) • B: Binding of oxLig-1-liposomes (oxLig-1: 40 mol %) to J774.A1 cells in the presence (black bar) or absence (white bar) of β2-GPI (200 μg/ml). • C: A monolayer of J774.A1 cells was incubated for 2 hours at 4° C. with Celgrosser-P medium containing ^3H-labeled synthesized oxLig-1-liposomes (50 nmol lipid/well) and WB-CAL-1, in the presence or absence of β2-GPI (200 μg/ml). Binding of synthesized oxLig-1-liposomes in the absence of β2-GPI and WB-CAL-1 (open circle), binding of synthesized oxLig-1-liposomes in the presence of β2-GPI (open square), binding of synthesized oxLig-1-liposomes in the presence of WB-CAL-1 (closed square), and binding of synthesized oxLig-1-liposomes in the presence of both β2-GPI and WB-CAL-1 (closed circle). Data are indicated as the mean ± SD of triplicate samples.
A monolayer of J774.A1 cells was incubated for 2 hours at 4° C. with Celgrosser-P medium containing [^3H]-labeled liposomes (containing a predetermined ligand, 50 nmol lipid/well). DPPS-containing liposomes (open squares), oxLig-1-containing liposomes (closed squares), oxLig-2-containing liposomes (closed circles), and 13-COOH-7KC-containing liposomes (closed triangles). Data are indicated as mean± SD of triplicate samples.
A monolayer of J774.A1 cells was incubated for 2 hours at 4° C. with Celgrosser-P medium containing [^3H]-labeled liposomes (containing a predetermined ligand (30 mmol %), 50 nmol lipid/well) and in the presence (black bars) or absence (white bars) of β2-GPI (200 μg/mL) and WB-CAL-1 ([…]).
A monolayer culture of murine macrophage-like cells (J774A.1) obtained from Riken Cell Bank (Tsukuba) was maintained in RPMI 1640 medium supplemented with 10% fetal carf serum (FCS). For binding experiments, the cells (8×10^5 cells/mL, RPMI1640) were dispensed in an amount of 1 mL/well into a 12-well culture plate (Sumitomo Bakelite Co., Ltd.) and were incubated for 24 hours at 37° C., then the culture broth was replaced with Celgrosser-P medium (Sumitomo Pharmaceutical Co.). After one hour of preincubation at 37° C., 50 μL of liposomes (50 nmol lipid/well) with or without β2-GPI (200 μg/mL) and WB-CAL-1 (100 μg/mL) were added to each culture, and the cells were incubated at 4° C. and/or 37° C. The wells were next washed with chilled PBS, and the cells were lysed by adding 1 mL of 0.1N NaOH. An aliquot was taken for determination of cellular proteins and of radioactivity associated with the cells. Protein concentration was determined in a manner as described above.

Structure (SMILES): CC(C)CCC[C@@H](C)[C@H]1CC[C@H]2[C@@H]3C(=O)C=C4C[C@@H](OC(=O)CCCCCCCC(=O)O)CC[C@]4(C)[C@H]3CC[C@]12C [oxLig-1, 9-oxo-9-(7-ketocholest-5-en-3β-yloxy)nonanoic acid]
- binding of the anti-β2-GPI autoantibodies (WB-CAL-1 and EY2C9) to solid-phase ligand ([1]; ligand-coated plate): significant binding
- cross-reaction of autoantibodies derived from APS with β2-GPI complexed with lipid [1]: cross-reacted
- Binding of β2-GPI-dependent aCL, APS-1 [2]: 1.130 ± 0.177
- Binding of β2-GPI-dependent aCL, WB-CAL-1 ([3]; Experiment 1, Absorbance, mean ± SD, n = 3, solid-phase lipid, β2-GPI 15 μg/mL): 1.035 ± 0.062
- WB-CAL-1 binding, No treatment ([3]; absorbance at 490 nm, mean ± SD (n = 3), solid-phase ligand not methylated): 0.945 +/− 0.068
- direct binding of liposomes to macrophages ([4]; J774A.1 cells, 2 hours at 4° C., 50 nmol lipid/well, without β2-GPI and antibody, result in words): relatively low or negligible small
- uptake of ligand-containing liposomes to J774A.1 cells in the presence of both β2-GPI and WB-CAL-1 ([4]; liposomes containing the ligand, compared with cholesteryl linoleate-liposomes (control), FIG. 20, result in words): significantly enhanced
- ligand concentration in liposomes at which binding to macrophages reached almost plateau ([4]; synthesized oxLig-1-liposomes, J774A.1 cells): 10 mol %
